In brackets after ≈: the same amount, converted by molar mass. Activity calls are given as the source filed them. The calls are words filed in the database; no cut-off is given here.
Assays:
[1] = tested on: Staphylococcus aureus; assay: Antibacterial activity against Staphylococcus aureus ATCC 29213 assessed as inhibition of bacterial growth incubated for 18 to 24 hrs by broth microdilution method; type: functional; conditions: time 18-24 hrs
[2] = Selectivity index, ratio of CC50 for cytotoxicity against human HepG2 cells to MIC for antibacterial activity against Staphylococcus aureus ATCC 29213; type: toxicity, cell-based; conditions: read-out: Selectivity Index
[3] = Cytotoxicity against HUVEC cells assessed as reduction in cell viability incubated for 48 hrs by CCK8 assay; type: toxicity, cell-based; conditions: human
[4] = biological target: DNA gyrase (Staphylococcus aureus, UniProt P0A0K8+P20831); assay: Inhibition of Staphylococcus aureus DNA gyrase ATP hydrolysis activity using pBR322 DNA as substrate incubated for 30 mins in presence of ATP by ADP-Glo reagent based assay; type: protein-complex assay
[5] = Selectivity index, ratio of CC50 for cytotoxicity against HUVEC cells to MIC for antibacterial activity against Staphylococcus aureus ATCC 29213; type: toxicity, cell-based; conditions: human, read-out: Selectivity Index
[6] = Cytotoxicity against human HepG2 cells assessed as reduction in cell viability incubated for 48 hrs by CCK8 assay; type: toxicity, cell-based
[7] = tested on: Enterococcus faecalis; assay: Antibacterial activity against Enterococcus faecalis (8 strains) assessed as inhibition of bacterial growth incubated for 18 to 24 hrs by broth microdilution method; type: functional; conditions: time 18-24 hrs
[8] = tested on: Staphylococcus aureus; assay: Antibacterial activity against methicillin-sensitive Staphylococcus aureus (8 strains) assessed as inhibition of bacterial growth incubated for 18 to 24 hrs by broth microdilution method; type: functional; conditions: time 18-24 hrs
[9] = tested on: Staphylococcus aureus; assay: Bactericidal activity against Staphylococcus aureus ATCC 29213 at 16 times of MIC measured after 24 hrs by time-kill assay; type: functional, organism-based
[10] = tested on: Staphylococcus aureus; assay: Antibacterial activity against methicillin-resistant Staphylococcus aureus clinical isolate 16-1 infected in kunming mouse model assessed as survival rate at 10 mg/kg, iv pre-infected with bacteria for 10 mins followed by compound administration and measured for 7 days (reference value: 0 %); type: functional; conditions: 168 h, time 7 day
[11] = Stability in mouse plasma assessed as half-life at 1 uM measured upto 120 mins by LC-MS/MS analysis; type: ADME, cell-free
[12] = tested on: Staphylococcus aureus; assay: Bacteriostatic activity against Staphylococcus aureus ATCC 29213 assessed as inhibition of bacterial growth at 4 times of MIC measured after 24 hrs by time-kill assay; type: functional, organism-based
[13] = tested on: Staphylococcus aureus; assay: Antibacterial activity against vancomycin intermediate and methicillin-resistant Staphylococcus aureus (2 strains) assessed as inhibition of bacterial growth incubated for 18 to 24 hrs by broth microdilution method; type: functional; conditions: time 18-24 hrs
[14] = tested on: Staphylococcus aureus; assay: Antibacterial activity against methicillin-resistant Staphylococcus aureus (15 strains) assessed as inhibition of bacterial growth incubated for 18 to 24 hrs by broth microdilution method; type: functional; conditions: time 18-24 hrs
[15] = tested on: Staphylococcus aureus; assay: Bacteriostatic activity against Staphylococcus aureus ATCC 29213 assessed as log reduction in bacterial colony counts at 4 times of MIC measured after 24 hrs by time-kill assay; type: functional
[16] = tested on: Staphylococcus aureus; assay: Bactericidal activity against Staphylococcus aureus ATCC 29213 assessed as log reduction in bacterial colony counts at 16 times of MIC measured after 24 hrs by time-kill assay; type: functional
[17] = Metabolic stability in mouse liver microsomes assessed as half-life at 1 uM measured upto 60 mins in presence of NADPH by LC-MS/MS analysis; type: ADME, Microsome
[18] = tested on: Staphylococcus aureus; assay: Antibacterial activity against methicillin-resistant Staphylococcus aureus clinical isolate 16-1 infected in kunming mouse model assessed as survival rate at 14 mg/kg, iv pre-infected with bacteria for 10 mins followed by compound administration and measured for 7 days (reference value: 0 %); type: functional; conditions: 168 h, time 7 day
[19] = tested on: Staphylococcus aureus; assay: Antibacterial activity against methicillin-resistant Staphylococcus aureus clinical isolate 16-1 infected in kunming mouse model assessed as survival rate at 20 mg/kg, iv pre-infected with bacteria for 10 mins followed by compound administration and measured for 7 days (reference value: 0 %); type: functional; conditions: 168 h, time 7 day
[20] = tested on: Staphylococcus epidermidis; assay: Antibacterial activity against methicillin-resistant Staphylococcus epidermidis (11 strains) assessed as inhibition of bacterial growth incubated for 18 to 24 hrs by broth microdilution method; type: functional; conditions: time 18-24 hrs
[21] = biological target: DNA gyrase (Staphylococcus aureus) (UniProt P0A0K8+P20831); assay: Inhibition of Staphylococcus aureus DNA gyrase supercoiling using […] pBR322 DNA as substrate assessed as reduction in supercoiled DNA incubated for 30 mins in presence of ATP by agarose gel electrophoresis; type: protein-complex assay; conditions: dose 0.01-100 µM
[22] = tested on: Enterococcus faecium; assay: Antibacterial activity against Enterococcus faecium (8 strains) assessed as inhibition of bacterial growth incubated for 18 to 24 hrs by broth microdilution method; type: functional; conditions: time 18-24 hrs
[23] = tested on: Staphylococcus aureus; assay: Bacteriostatic activity against Staphylococcus aureus ATCC 29213 assessed as inhibition of bacterial growth at 1 times of MIC measured after 24 hrs by time-kill assay; type: functional, organism-based
[24] = tested on: Staphylococcus epidermidis; assay: Antibacterial activity against methicillin-sensitive Staphylococcus epidermidis (8 strains) assessed as inhibition of bacterial growth incubated for 18 to 24 hrs by broth microdilution method; type: functional; conditions: time 18-24 hrs
[25] = tested on: Staphylococcus aureus; assay: Antibacterial activity against methicillin-resistant Staphylococcus aureus clinical isolate 16-1 infected in kunming mouse model assessed as survival rate at 7 mg/kg, iv pre-infected with bacteria for 10 mins followed by compound administration and measured for 7 days (reference value: 0 %); type: functional; conditions: 168 h, time 7 day
[26] = tested on: Staphylococcus aureus; assay: Antibacterial activity against methicillin-resistant Staphylococcus aureus clinical isolate 16-1 infected in kunming mouse model assessed as survival rate at 3.5 mg/kg, iv pre-infected with bacteria for 10 mins followed by compound administration and measured for 7 days (reference value: 0 %); type: functional; conditions: 168 h, time 7 day
[27] = tested on: Staphylococcus aureus; assay: Antibacterial activity against methicillin-resistant Staphylococcus aureus clinical isolate 16-1 infected in kunming mouse model assessed as survival rate at 5 mg/kg, iv pre-infected with bacteria for 10 mins followed by compound administration and measured for 7 days (reference value: 0 %); type: functional; conditions: 168 h, time 7 day

DNA gyrase, sequence (P0A0K8 whole entry): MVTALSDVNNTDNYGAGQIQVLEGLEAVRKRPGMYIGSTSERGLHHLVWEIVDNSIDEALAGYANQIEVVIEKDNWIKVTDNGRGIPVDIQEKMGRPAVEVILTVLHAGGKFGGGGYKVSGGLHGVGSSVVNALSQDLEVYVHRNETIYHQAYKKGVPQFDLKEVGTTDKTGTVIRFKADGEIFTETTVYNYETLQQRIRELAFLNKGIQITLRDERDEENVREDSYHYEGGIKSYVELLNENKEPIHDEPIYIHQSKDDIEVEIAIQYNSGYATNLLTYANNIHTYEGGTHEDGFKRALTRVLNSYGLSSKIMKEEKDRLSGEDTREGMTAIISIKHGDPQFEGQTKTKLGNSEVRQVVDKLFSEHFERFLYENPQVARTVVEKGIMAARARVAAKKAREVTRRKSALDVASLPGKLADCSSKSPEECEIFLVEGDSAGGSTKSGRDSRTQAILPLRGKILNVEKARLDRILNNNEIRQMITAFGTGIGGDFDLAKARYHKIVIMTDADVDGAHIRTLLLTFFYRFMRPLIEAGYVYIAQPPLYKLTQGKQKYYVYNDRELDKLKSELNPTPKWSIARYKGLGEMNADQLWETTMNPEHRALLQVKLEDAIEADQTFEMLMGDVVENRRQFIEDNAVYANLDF
DNA gyrase, sequence (P20831 whole entry): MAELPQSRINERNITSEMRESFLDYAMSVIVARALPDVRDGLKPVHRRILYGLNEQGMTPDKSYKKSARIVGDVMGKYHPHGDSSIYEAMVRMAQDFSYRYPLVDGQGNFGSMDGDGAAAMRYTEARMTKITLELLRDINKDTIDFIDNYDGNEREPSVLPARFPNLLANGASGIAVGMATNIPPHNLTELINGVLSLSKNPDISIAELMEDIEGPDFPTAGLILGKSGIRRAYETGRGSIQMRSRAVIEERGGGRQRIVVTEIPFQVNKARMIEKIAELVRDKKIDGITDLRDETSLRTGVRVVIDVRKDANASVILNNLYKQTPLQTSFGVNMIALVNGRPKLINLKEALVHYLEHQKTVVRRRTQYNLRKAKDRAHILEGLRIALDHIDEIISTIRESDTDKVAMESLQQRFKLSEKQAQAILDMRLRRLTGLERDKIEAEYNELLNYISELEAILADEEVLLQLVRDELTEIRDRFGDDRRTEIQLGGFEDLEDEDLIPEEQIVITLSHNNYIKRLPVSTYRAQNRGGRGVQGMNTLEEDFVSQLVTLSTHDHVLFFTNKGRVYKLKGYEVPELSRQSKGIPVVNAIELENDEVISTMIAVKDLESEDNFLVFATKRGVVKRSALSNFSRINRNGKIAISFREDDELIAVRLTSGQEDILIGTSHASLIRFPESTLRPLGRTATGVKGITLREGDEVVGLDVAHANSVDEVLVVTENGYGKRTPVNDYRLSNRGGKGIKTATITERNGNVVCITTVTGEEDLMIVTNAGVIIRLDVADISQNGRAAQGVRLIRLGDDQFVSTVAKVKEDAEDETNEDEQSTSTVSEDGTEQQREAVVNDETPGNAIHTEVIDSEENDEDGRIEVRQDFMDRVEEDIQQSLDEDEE
DNA gyrase (Staphylococcus aureus), sequence (P0A0K8 2-644 limits assumed): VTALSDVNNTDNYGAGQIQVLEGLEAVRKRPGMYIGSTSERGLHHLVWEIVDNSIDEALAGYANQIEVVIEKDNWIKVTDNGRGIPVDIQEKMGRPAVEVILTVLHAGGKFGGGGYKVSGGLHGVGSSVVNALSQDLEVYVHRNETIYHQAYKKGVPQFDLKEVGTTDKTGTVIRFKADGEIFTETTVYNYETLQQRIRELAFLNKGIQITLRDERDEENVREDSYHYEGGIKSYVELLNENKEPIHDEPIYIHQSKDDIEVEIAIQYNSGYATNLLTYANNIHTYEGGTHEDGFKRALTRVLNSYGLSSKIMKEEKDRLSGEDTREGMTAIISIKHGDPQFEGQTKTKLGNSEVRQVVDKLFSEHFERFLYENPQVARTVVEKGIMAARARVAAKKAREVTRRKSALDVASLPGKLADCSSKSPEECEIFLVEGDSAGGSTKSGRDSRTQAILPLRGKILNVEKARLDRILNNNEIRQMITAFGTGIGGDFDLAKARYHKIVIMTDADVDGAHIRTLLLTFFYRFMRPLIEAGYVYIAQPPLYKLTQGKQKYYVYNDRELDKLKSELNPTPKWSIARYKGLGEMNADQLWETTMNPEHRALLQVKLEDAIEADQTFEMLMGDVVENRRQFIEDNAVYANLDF
DNA gyrase (Staphylococcus aureus), sequence (P20831 whole entry partner): as the sequence (P20831 whole entry) above

CCCCCOc1ccc(CC(=O)NNC(=S)NC(C)=O)cc1
MIC [1]: 25 µg/mL

CC(=O)NC(=S)NNC(=O)c1ccc(N2CCOCC2)cc1
MIC [1]: 100 µg/mL

CCCCCCOc1ccc(C(=O)NN(C)C(=S)NC(C)=O)cc1
MIC [1]: > 100 µg/mL

CC(=O)NC(=S)NNC(=O)c1ccc(C2CCCCC2)cc1
MIC [1]: 1.22 µM
selectivity ratio [2]: 0.1
CC50 at 48 h [3]: 790 nM
IC50 [4]: 1890 nM
selectivity ratio [5]: 0.65
CC50 at 48 h [6]: 120 nM

CCCCCOc1ccc(C(=O)NNC(=S)NC(=O)C2CC2)cc1
MIC [1]: 6.25 µg/mL

CCCCCOc1ccc(C(=O)NNC(=S)NC(=O)c2cccs2)cc1
MIC [1]: 3.12 µg/mL

CCCCCOc1ccc(C(=O)NNC(=S)NC(=O)CCC(=O)OC)cc1
MIC [1]: 12.5 µg/mL

CC(=O)NC(=S)NNC(=O)c1ccccc1
MIC [1]: 50 µg/mL

CCCCCOc1ccc(C(=O)NNC(=S)NC(=O)C2CCCC2)cc1
MIC [1]: 50 µg/mL

CCCCCOc1ccc(C(=O)NNC(=S)NC(=O)Cc2ccccc2)cc1
MIC [1]: > 100 µg/mL

CC(=O)NC(=S)NNC(=O)c1cccc(-c2ccccc2)c1
MIC [1]: 3.12 µg/mL

CC(=O)NC(=S)NNC(=O)c1ccc(-c2ccccc2)cc1
MIC [1]: 1.56 µg/mL

CCCCCOc1ccc(CCC(=O)NNC(=S)NC(C)=O)cc1
MIC [1]: > 100 µg/mL

CCCCCOc1ccc(C(=O)NNC(=S)NC(=O)CCC)cc1
MIC [1]: 12.5 µg/mL

CCCCCCOc1ccc(C(=O)N(C)NC(=S)NC(C)=O)cc1
MIC [1]: > 100 µg/mL

CCCCCCOc1ccc(C(=O)NNC(=S)NCC)cc1
MIC [1]: > 100 µg/mL

CCCCCOc1ccc(C(=O)NNC(=S)NC(C)=O)cc1
MIC [7]: 4 µg/mL (≈ 12.4 µM)
MIC [8]: 1 µg/mL (≈ 3.09 µM)
Activity [9]: Active
survival at 10 mg/kg [10]: 20%
half-life at 1 µM [11]: > 120 min
MIC [1]: 2.41 µM
Activity [12]: Active
MIC [13]: 2 µg/mL (≈ 6.18 µM)
MIC [14]: 2 µg/mL (≈ 6.18 µM)
log(activity) [15]: 2.51
selectivity ratio [2]: 0.98
log(activity) [16]: 6.41
half-life at 1 µM [17]: 28.3 min
survival at 14 mg/kg [18]: 20%
CC50 at 48 h [3]: 6460 nM
survival at 20 mg/kg [19]: 50%
MIC [20]: 0.5 µg/mL (≈ 1.55 µM)
IC50 [4]: 1810 nM
selectivity ratio [5]: 2.68
inhibition [21]: Dose-dependent-effect
MIC [22]: 2 µg/mL (≈ 6.18 µM)
Activity [23]: Active
MIC [24]: 1 µg/mL (≈ 3.09 µM)
CC50 at 48 h [6]: 2370 nM
survival at 7 mg/kg [25]: 10%

CCC(=O)NC(=S)NNC(=O)c1ccccc1O
MIC [1]: 50 µg/mL

CCCCCOc1ccc(C(=O)NNC(=S)NS(C)(=O)=O)cc1
MIC [1]: > 100 µg/mL

CCCCCCOc1ccc(CNNC(=S)NCC)cc1
MIC [1]: > 100 µg/mL

CC(=O)NC(=S)NNC(=O)c1ccc([N+](=O)[O-])cc1
MIC [1]: > 100 µg/mL

CCC(=O)NC(=S)NNC(=O)c1ccc(OC)cc1
MIC [1]: 25 µg/mL

CCCCCCOc1ccc(C(=O)NNC(N)=S)cc1
MIC [1]: > 100 µg/mL

CCCCCOc1ccc(C(=O)NNC(=S)NC(=O)C(C)C)cc1
MIC [1]: 12.5 µg/mL

CCCCCOc1ccc(C(=O)NNC(=S)NC(=O)c2ccc(C(=O)O)cc2)cc1
MIC [1]: > 100 µg/mL

CN[C@H](CC(C)C)C(=O)N[C@H]1C(=O)N[C@@H](CC(N)=O)C(=O)N[C@H]2C(=O)N[C@H]3C(=O)N[C@H](C(=O)N[C@H](C(=O)O)c4cc(O)cc(O)c4-c4cc3ccc4O)[C@H](O)c3ccc(c(Cl)c3)Oc3cc2cc(c3O[C@@H]2O[C@H](CO)[C@@H](O)[C@H](O)[C@H]2O[C@H]2C[C@](C)(N)[C@H](O)[C@H](C)O2)Oc2ccc(cc2Cl)[C@H]1O [VANCOMYCIN]
survival at 10 mg/kg [10]: 60%
MIC [1]: 1.56 µg/mL
MIC [14]: 0.25 µg/mL (≈ 0.173 µM)
survival at 3.5 mg/kg [26]: 20%
survival at 5 mg/kg [27]: 50%
survival at 7 mg/kg [25]: 50%

CCCCCOc1ccc(C(=O)NNC(=S)NC(=O)c2ccc(C(=O)OC)cc2)cc1
MIC [1]: > 100 µg/mL

CC(=O)NC(=S)NNC(=O)c1ccc(C2CC2)cc1
MIC [1]: 3.12 µg/mL
